Data: patent publication US20260034135A1, “USE OF N6-BENZYLAMINOPURINE AS AN APPETITE SUPPRESSANT” (THE GOVERNING COUNCIL OF THE UNIVERSITY OF TORONTO, priority 2022, published 2026)
Read-outs that look alike come from different tables or passages of the source.

Experiments:
[1] = rats fed BAP for 13 weeks, EPA study, no data shown; cited from earlier work
mHypoA-59 cell line = experiment: Gene expression by qRT-PCR in mHypoA-59 hypothalamic cell line; assay type: cell-based, mouse; settings: 100 μM BAP, 16 hr
Experimental: (§1) Hypothalamic neurons from embryonic and adult mice were previously immortalized to generate the clonal cell lines mHypoE-46, mHypoE-44, mHypoE-41, mHypoE-38, mHypoA-59, a FAC-sorted POMC/GFP mouse-derived cell line, mHypoA-POMC/GFP-2, and a mixed culture mHypoA-Bmal1-WT/F cell line (6, 13, 14). The mHypoE-46, mHypoE-44, and mHypoA-Bmal1-WT/F lines were cultured in DMEM containing 1000 mg/L glucose supplemented with 5% FBS and 1% pen/strep. The mHypoE-41, mHypoE-38, and mHypoA-59 cell lines were cultured in DMEM containing 4500 mg/L glucose supplemented with 2% FBS and 1% pen/strep. The mHypoA-POMC/GFP-2 line was cultured in DMEM containing 1000 mg/L glucose supplemented with 2% FBS and 1% pen/strep. All cells were maintained in 5% CO2 at 37° C. BAP was initially dissolved in DMSO solvent (vehicle control) to achieve 1000x the intended dose. The BAP solution was then diluted 1:1000 with the growth media used for the cell line. For co-treatment experiments, the vehicle control for ATP, UDP, and PKI was water, and for the H89 PKA inhibitor was DMSO. Neuropeptide gene expression levels were determined by qRT-PCR.
(§2) For cell culture experiments, total RNA was isolated using PureLink RNA isolation kit (Thermofisher Scientific, Burlington, ON, Canada) according to the manufacturer's instruction with on column DNase step (PureLink DNAse kit) or DNase I treatment to remove genomic DNA. For mouse experiments, total RNA was isolated using mirVana PARIS RNA and native protein isolation kit (Thermofisher Scientific). RNA quality and quantity were measured using Nanodrop 2000 and 500-1000 ng of complimentary DNA (cDNA) was synthesized with High Capacity cDNA Reverse Transcription kit (Applied biosystems, Thermofisher Scientific). Quantitative reverse transcription polymerase chain reaction (RT-qPCR) was performed with 12.5 ng of cDNA amplified with Platinum SYBR green qPCR SuperMix-UDG with ROX on an Applied Biosystems Prism 7900HT or PowerTrack Green Master Mix on an Applied Biosystems QuantStudio 5 and gene specific primers as per manufacturer's instructions (Table 1). Data was analyzed using […] and normalized to reference gene, either 60S ribosomal protein L7 (Rpl7) or Histone 3a (His).

mHypoE-38 cell line = experiment: Gene expression by qRT-PCR in mHypoE-38 hypothalamic cell line; assay type: cell-based, mouse; settings: 100 μM BAP, 16 hr
Experimental: as §1, with “All cells were maintained in 5% CO2 at 37° C. BAP was initially dissolved in DMSO solvent (vehicle control) to achieve 1000x the intended dose. The BAP solution was then diluted 1:1000 with the growth media used for the cell line. For co-treatment experiments, the vehicle control for ATP, UDP, and PKI was water, and for the H89 PKA inhibitor was DMSO.” left out
(§3) For cell culture experiments, total RNA was isolated using PureLink RNA isolation kit (Thermofisher Scientific, Burlington, ON, Canada) according to the manufacturer's instruction with on column DNase step (PureLink DNAse kit) or DNase I treatment to remove genomic DNA. […] RNA quality and quantity were measured using Nanodrop 2000 and 500-1000 ng of complimentary DNA (cDNA) was synthesized with High Capacity cDNA Reverse Transcription kit (Applied biosystems, Thermofisher Scientific). […] Data was analyzed using […] and normalized to reference gene, either 60S ribosomal protein L7 (Rpl7) or Histone 3a (His).

[2] = tested on: mHypoA-POMC/GFP-2 cell line; experiment: Gene expression by qRT-PCR in mHypoA-POMC/GFP-2 hypothalamic cell line; assay type: cell-based, mouse; settings: 100 μM BAP, 16 hr
Experimental: as §1, with “All cells were maintained in 5% CO2 at 37° C. BAP was initially dissolved in DMSO solvent (vehicle control) to achieve 1000x the intended dose. The BAP solution was then diluted 1:1000 with the growth media used for the cell line. For co-treatment experiments, the vehicle control for ATP, UDP, and PKI was water, and for the H89 PKA inhibitor was DMSO.” left out
as §3

mHypoE-44 cell line = experiment: Gene expression by qRT-PCR in mHypoE-44 hypothalamic cell line; assay type: cell-based, mouse; settings: for effect of PKA inhibition on BAP effect on Npy expression: n=2
Experimental: as §1, §2

[3] = Peripheral fat mass by Bruker scan; assay type: in vivo, CD-1 mice; settings: male CD-1, HFD, BAP emulsion 11 days, Bruker scan before and after
Description: (§4) Male and female CD-1 mice were received at age 6-7 weeks and were acclimated on a chow diet for one week prior to experimentation. After acclimation to the facility, mice were switched to a 60% HFD. The male and female mice received HFD for 4 (male) and 5 or 16 (female) weeks prior to BAP exposure. The mice were then acclimated to the emulsion feeding protocol for 4 days prior to the start of BAP exposure using the method described in Kuster et al. (12). Two days prior to the start of the exposure period, a cohort of male mice underwent acute general anesthetic with isoflurane for baseline Bruker scanning to quantify peripheral fat mass. The mice were then weight-matched and randomly assigned to either the control or BAP group. During the exposure period, mice were restrained via scruffing (held at back of neck) and fed 200 μL of an emulsion containing 0.5% carboxymethyl cellulose and 50% honey with or without BAP at 2 hr prior to lights off at the facility daily.
The BAP concentrations were calibrated weekly to achieve a dosage of 300 mg/kg/day. All mice were kept on the 60% HFD throughout the exposure period. […] Hypothalamic collected from the mice were then used to isolate RNA and quantify gene expression using quantitative reverse transcription polymerase chain reaction (qRT-PCR).

[4] = tested on: primary hypothalamic neurons; experiment: Feeding neuropeptide expression in primary hypothalamic culture (qRT-PCR); assay type: cell-based, CD-1 mice; settings: 100 μM BAP, 16 hr, male- and female-derived cultures (both sexes)
Experimental: as §2
Because the BAP was being fed to the mice, it is also important to determine what are the direct effects of BAP on native hypothalamic neurons, since the results may be due to an indirect effect from the periphery. Hypothalamus were extracted from male and female CD-1 mice fed a normal chow diet, and primary hypothalamic neurons were cultured from individual mice. The neurons were treated with 100 µM of BAP for 16 hr to assess the effect of BAP on feeding-related neuropeptide expression.

P2 receptors = settings: rats, via P2 receptors, modifying intracellular calcium levels and cGMP; cited from earlier work
[5] = BAP in a honey emulsion fed to CD-1 mice: body weight, food and water intake; assay type: in vivo
Description: as §4
[…] All mice were kept on the 60% HFD throughout the exposure period. […] On day 12, the one cohort of male mice underwent general anesthetic for the purpose of post-experiment Bruker scanning. The male mice were then fed their assigned emulsion 2 hr prior to sacrificing and tissue collection. […] Hypothalamic collected from the mice were then used to isolate RNA and quantify gene expression using quantitative reverse transcription polymerase chain reaction (qRT-PCR).

[6] = male CD-1, 60% HFD, 300 mg/kg/day BAP emulsion, 11 days, cohort CCBR
[7] = male CD-1, 60% HFD, 300 mg/kg/day BAP emulsion, 14 days, cohort BSF
[8] = male CD-1, 60% HFD, 300 mg/kg/day BAP emulsion, 28 days, cohort BSF

In the case of `c1ccc(CNc2ncnc3nc[nH]c23)cc1` [BAP, N6-benzylaminopurine], the food intake [1] is listed as “reduced”, the weight gain [1] is listed as “reduced” and the “Npy mRNA expression” value (mHypoA-59 cell line) is listed as “no effect”. The “feeding neuropeptide expression (Npy, Agrp) in response to BAP” value (mHypoA-59 cell line) was “no changes in feeding neuropeptide expression”, the “Agrp mRNA expression” value (mHypoE-38 cell line) was “increased” and the “Npy mRNA expression” value (mHypoE-38 cell line) was “no effect”. The Pomc expression [2] was “significantly induced”, the “effect of PKA inhibition on BAP effect on Npy expression” value (mHypoE-44 cell line; 100 μM BAP + 1 μM H89, 16 hr) was “unable to block the effects of BAP on Npy expression” and the “effect of PKA inhibition on BAP effect on Npy expression” value (mHypoE-44 cell line; 100 μM BAP + 10 μM PKI, 16 hr) was “unable to block the effects of BAP on Npy expression”. For the same compound, the “Npy mRNA under co-treatment with ATP” value (mHypoE-44 cell line; 100 μM BAP + 100 μM ATP, 16 hr) was “still able to overcome this induction”, the “Npy mRNA under co-treatment with UDP (effect of UDP on BAP repression)” value (mHypoE-44 cell line; 100 μM BAP + 100 μM UDP, 16 hr) was “block the repression of Npy levels by BAP” and the “Npy mRNA under co-treatment with UTP (effect of UTP on BAP repression)” value (mHypoE-44 cell line; 100 μM BAP + 100 μM UTP, 16 hr, n=2 preliminary) was “appears to be able to block the repression of Npy levels by BAP”. For the same compound, the “Agrp mRNA expression” value (mHypoE-44 cell line; 100 μM BAP, 16 hr) was “increased”, the “Npy mRNA expression” value (mHypoE-44 cell line; 100 μM BAP, 16 hr) was “supressed” and the “Npy mRNA expression, time course” value (mHypoE-44 cell line; 100 μM BAP, at 8 and 16 hr (tested 2, 4, 8, 16, 24 hr)) was “significantly downregulate”. The “BAP dose with strongest Npy decrease” value (mHypoE-44 cell line; dose curve, 16 hr) was 500 µM, the “Npy expression, dose curve” value (mHypoE-44 cell line; increasing concentrations of BAP, 16 hr) was “decreases Npy in a dose dependent manner” and the net peripheral fat [3] was “do not observe any significant changes”. For the same compound, the “peripheral fat mass percentage” value [3] was “do not observe any significant changes”, the Agrp expression [4] was “no effects” and the Npy expression [4] was “no effects”. For the same compound, the Pomc expression [4] was “significantly increase”, the “strength of atrial muscle contractions” value (P2 receptors) was “increase the strength of atrial muscle contractions” and the “body weight gain on HFD” value ([5]; female CD-1, 16 weeks 60% HFD then 300 mg/kg/day BAP emulsion 36 days, cohort BSF) was “did not gain weight”. For the same compound, the “food intake vs control” value ([5]; female CD-1, 60% HFD, 300 mg/kg/day BAP emulsion 36 days, cohort BSF) was “did not eat significantly less HFD”, the “body weight change vs control” value ([5]; male CD-1, 60% HFD, 75 mg/kg/day BAP emulsion, 14 days) was “no change” and the “body weight gain on HFD” value ([5]; male CD-1, 60% HFD, 150 mg/kg/day BAP emulsion, 14 days, cohort BSF) was “did not gain weight”. For the same compound, the body weight loss [5, 6] was 5%, the “reduction in HFD food intake vs control group over the exposure period” value [5, 6] was 22% and the body weight loss [5, 7] was 1.3%. For the same compound, the “daily average food intake vs control” value [5, 7] was “did not eat significantly less HFD”, the body weight loss ([5]; male CD-1, 60% HFD, 300 mg/kg/day BAP emulsion, 14 days, dose study, cohort BSF) was 1.1% and the food intake ([5]; male CD-1, 60% HFD, 300 mg/kg/day BAP emulsion, 14 days, dose study, significant by unpaired t-test at 8 days onward) was “trend towards a decrease in food intake that did not reach significance”. The body weight loss [5, 8] was 5%, the “reduction in daily average food intake vs control” value [5, 8] was 13% and the “cumulative daily food intake” value ([5]; male CD-1, 60% HFD, 75, 150, 300 mg/kg BAP emulsion, 14 days) was “do not have significant changes in food intake”.
